One assay has as its system Mtb 365. The experiment in a line: microbe, parasite or virus in culture. The following applies: Mycobacterium tuberculosis, 365, read-out: MIC (µg/ml) Mtb 365. The format is cell-based, Mycobacterium tuberculosis.
In another assay the test system is Mtb 276. Briefly: microbe, parasite or virus in culture. The conditions noted are these: Mycobacterium tuberculosis, 276, read-out: MIC (µg/ml) Mtb 276. The format is cell-based, Mycobacterium tuberculosis.
The next assay has as its system Mtb 352. Briefly: microbe, parasite or virus in culture. The format is cell-based, Mycobacterium tuberculosis. The following applies: Mycobacterium tuberculosis, 352, read-out: MIC (µg/ml) Mtb 352.
The subject of another assay is Mtb 56. Briefly: microbe, parasite or virus in culture. The conditions noted are these: Mycobacterium tuberculosis, 56, read-out: MIC (µg/ml) Mtb 56. The format is cell-based, Mycobacterium tuberculosis.
In assay [1] the test system is M. tuberculosis ATCC 35801 (strain Erdman). The experiment in a line: Microtiter broth dilution MIC, Mtb Erdman. The conditions noted are these: resistance pattern, S3 Table. On the technique in general: In broth dilution the organism is exposed to a series of concentrations in liquid medium.
A further assay relates to Mtb 5. The experiment in a line: microbe, parasite or virus in culture. The format is cell-based, Mycobacterium tuberculosis. The following applies: Mycobacterium tuberculosis, 5, read-out: MIC (µg/ml) Mtb 5.
Assay [2] relates to MDR and XDR strains of M. tuberculosis. Briefly: microbe, parasite or virus in culture. The format is cell-based. The following applies: Mycobacterium tuberculosis, read-out: MIC values across the resistant strains.

Converted amounts (≈) assume the structure as drawn.

Regarding `CC[C@@H](CO)NCCN[C@@H](CC)CO` [Ethambutol, reference compound], the MIC in the assay on Mtb 365 amounted to 32 µg/mL (≈ 157 µM); in the assay with Mtb 276, 4 µg/mL (≈ 19.6 µM); in the assay on Mtb 352, 1 µg/mL (≈ 4.89 µM); in the assay with Mtb 56, 32 µg/mL (≈ 157 µM). Further, the “MIC (µg/ml) Mtb Erdmann” value in assay [1] came out at 1 µg/mL (≈ 4.89 µM).
For the molecule `NNC(=O)c1ccncc1` [INH, Isoniazid, reference compound], the MIC with Mtb 5 was 2 µg/mL (≈ 14.6 µM); in the assay on Mtb 365, 4 µg/mL (≈ 29.2 µM); in the assay on Mtb 276 it was 0.25 µg/mL (≈ 1.82 µM); in the assay on Mtb 352 it was 1 µg/mL (≈ 7.29 µM); in the assay with Mtb 56, 2 µg/mL (≈ 14.6 µM); in assay [2] it was 0.25 to 4 µg/mL (≈ 1.82 to 29.2 µM). For the same molecule, in assay [1], the “MIC (µg/ml) Mtb Erdmann” value came out at 0.06 µg/mL (≈ 0.438 µM).
Consider `COc1c(N2C[C@@H]3CCCN[C@@H]3C2)c(F)cc2c(=O)c(C(=O)O)cn(C3CC3)c12` [Moxifloxacin, reference compound], for which the MIC in the assay with Mtb 5 stood at 1 µg/mL (≈ 2.49 µM); in the assay with Mtb 365, 0.06 µg/mL (≈ 0.149 µM). For the same molecule, in assay [1], the “MIC (µg/ml) Mtb Erdmann” value is 0.06 µg/mL (≈ 0.149 µM).
For the molecule `CO[C@H]1/C=C/O[C@@]2(C)Oc3c(C)c(O)c4c(O)c(c(/C=N/N5CCN(C)CC5)c(O)c4c3C2=O)NC(=O)/C(C)=C\C=C\[C@H](C)[C@H](O)[C@@H](C)[C@@H](O)[C@@H](C)[C@H](OC(C)=O)[C@@H]1C` [RIF, rifampin, reference compound], the MIC stood at 8 µg/mL (≈ 9.72 µM) with Mtb 5; 64 µg/mL (≈ 77.8 µM) in the assay with Mtb 365; 0.015 µg/mL (≈ 0.0182 µM) in the assay on Mtb 276; 0.001 µg/mL (≈ 0.00122 µM) in the assay on Mtb 352; 32 µg/mL (≈ 38.9 µM) in the assay with Mtb 56. In addition, the “MIC (µg/ml) Mtb Erdmann” value in assay [1] was 0.004 µg/mL (≈ 0.00486 µM).
Turning to `[H]/N=C(/N)N[C@H]1[C@H](O)[C@@H](O)[C@H](O[C@@H]2O[C@@H](C)[C@](O)(C=O)[C@H]2O[C@@H]2O[C@@H](CO)[C@H](O)[C@@H](O)[C@@H]2NC)[C@@H](N/C(N)=N\[H])[C@@H]1O` [Streptomycin, reference compound], the MIC is 32 µg/mL (≈ 55 µM) in the assay on Mtb 365, 0.25 µg/mL (≈ 0.43 µM) in the assay on Mtb 276, 0.25 µg/mL (≈ 0.43 µM) in the assay with Mtb 352 and 32 µg/mL (≈ 55 µM) in the assay with Mtb 56.

The record behind these values is paper PMC5006990 (PLoS ONE, 2016).
